Reference: patent publication US20050042688A1, “Cellular analysis” (priority 2003, published 2005)

Tested on: T cells
Conditions: whole blood collected in EDTA versus heparin as anticoagulant, 37° C., activated with PDBu/ionomycin
Protocol: In this example, whole blood was collected from a donor in collection tubes containing heparin (curve 1) or EDTA (curve 2), respectively, as the anticoagulants. Blood samples were then incubated at 37° C. and activated with phorbol ester and a calcium ionophore (PDBu/I, phorbol-12,13-dibutyrate/ionomycin).

Compound: O=C(O)CN(CCN(CC(=O)O)CC(=O)O)CC(=O)O [EDTA]
- responsiveness of T-cells (level of inducible actin polymerization by PDBu/I): dramatic decrease in the responsiveness of T-cells
